Test results taken from patent publication US20260085292A1, “MINIMAL ESSENTIAL MEDIA FOR THE CULTURE OF HUMAN INDUCED PLURIPOTENT STEM CELLS” (Northwestern University, priority 2022, published 2026).
Counter-ions that a name gives are not always drawn. Like-named read-outs stand apart in the source and are kept apart here. Where a SMILES comes first, the peptide text is derived from it.

Assays:
[1] = tested on: hiPSC lines (19c3 and 23c1); assay: hiPSC growth titration assay: 1-5 passages in 12-well plates, then resazurin viability assay; settings: for concentration required to maintain similar levels of proliferation: three-passage assay
Source text: Each commercial medium was normalized to the DMEM/F12 levels of L-glutamine, D-glucose, sodium pyruvate, sodium bicarbonate, pH, and osmolarity (FIG. 1B). To assess the effect of basal medium on hiPSC growth, an assay was developed consisting of plating cells in 12-well plates, and growing cells for 4 days with daily medium changes, before passaging at a 1:20 ratio. This was completed for 1-5 passages followed by a cost-effective resazurin viability assay (FIG. 1C). […] This was chosen to minimize the effect of variance caused by repeated manual passaging and replating. At least two hiPSC lines were used in parallel throughout the titration process. Identified adjusted concentrations of each group, such as amino acids, was incorporated prior to beginning the next group, such as vitamins, to bring subsequent titrations as close to final formulation as possible. Once the initial full cycle of titration of all components was complete, a second full cycle of was performed to confirm the results in the final formulation. We also completed identical experiments without daily medium change to identify components and concentrations that support this protocol (FIGS. 3, 5, and 8), and to allow for development of a simplified hiPSC culture strategy.
(§1) Human induced pluripotent cell culture: BMEM consists of BMEM basal medium and BMEM supplement. […] These are added to ultrapure water and filter sterilized. BMEM supplement consists of 5 mg/mL E. coli-derived recombinant human insulin (Gibco), […] L-ascorbic acid 2-phosphate trisodium salt (AA2P, Wako), 5 mg/mL Oryza sat-iva-derived recombinant human transferrin (Optiferrin, InVitria), 20 ng/mL sodium selenite (Sigma), 40 ng/mL recombinant human FGF2-G3 (made in-house), 0.1 ng/mL recombinant human TGFb3 (E. coli-derived, Qkine), 0.1 ng/mL recombinant human NRG1 (E. coli-derived, Shenodoah Biotechnology). Cells were routinely maintained in this medium on 1:800 diluted growth factor reduced Matrigel (Corning) diluted in a BMEM basal at 2 mL per well of a 6-well plate or equivalent. Matrigel-coated plates were kept in CO2 incubators at 37° C. for up to 1 month. BMEM was supplemented with […] thiazovivin (LC Labs), hereafter referred to as BMEM-T, for the first 24 h after passage. For standard culture, cells were passaged at a ratio of 1:20 every 4 days using 0.5 mM EDTA (Invitrogen) diluted in DPBS^−/− (without Ca^2+ and Mg^2+, Corning), after achieving ˜70%-80% confluence. Cell lines were used between passages 20 and 100. Throughout, pH was adjusted immediately after making the medium at room temperature and atmospheric oxygen and carbon dioxide levels but before filter sterilization. pH was adjusted with 12 N HCl or 1 N NaOH (both from Fisher) and measured using a SevenCompact pH meter (MettlerToledo). Osmolarity was measured using an osmometer (Advanced Instruments).
Resazurin assay: Resazurin sodium salt (B21187.06, Thermo) was diluted to 5 mg/mL in sterile Milli-Q ultrapure water and 600 μL aliquots were made and stored at −20° C. One aliquot was added to 14.4 mL of water to generate a 10× stock. Stock was diluted in BMEM to 1×, and 1 mL was added to each well of a 12-well plate and incubated at 37° C. for 2.5 h. Plates were read on a Varioskan Lux (Thermo) in fluorescent mode using top read and an excitation wavelength of 560 nm and an emission wavelength of 590 nm.

[2] = 110 mM NaCl
Procedure: as §1, with “For standard culture, cells were passaged at a ratio of 1:20 every 4 days using 0.5 mM EDTA (Invitrogen) diluted in DPBS^−/− (without Ca^2+ and Mg^2+, Corning), after achieving ˜70%-80% confluence. Cell lines were used between passages 20 and 100.” left out

[3] = daily medium change, multi-passage assay, normalized to DMEM/F12

| Molecule | requirement of the component for hiPSC growth [1, 3] | suitable concentration compared with that in DMEM/F12 ([1]; titration, daily medium change) | also measured |
| --- | --- | --- | --- |
| O=C(O)CCCC[C@@H]1CCSS1 (racemic) [lipoic acid, Lipoic acid] | superfluous | – | – |
| [Ca+2].[Cl-].[Cl-] [CaCl2, Calcium chloride (CaCl2)] | – | could be reduced | effect of low concentrations on hiPSCs ([1]; two-passage titration): reduced the adhesion of hiPSCs to the plates |
| CC(C)(CO)[C@@H](O)C(=O)NCCC(=O)[O-].CC(C)(CO)[C@@H](O)C(=O)NCCC(=O)[O-].[Ca+2] [D-pantothenic acid, D-Pantothenic acid hemicalcium salt (B5)] | – | higher concentrations | – |
| O=S(=O)(O)CCN1CCN(CCO)CC1 [HEPES] | superfluous | – | requirement of the component for hiPSC growth ([1]; no medium change): superfluous |
| [Cl-].[K+] [KCl, Potassium chloride (KCl)] | – | could be reduced | – |
| C[C@H](N)C(=O)N[C@@H](CCC(N)=O)C(=O)O [L-alanyl-L-glutamine] (H-Ala-Gln-OH) | – | – | hiPSC growth rate compared with glutamine at the suitable concentrations ([1]; 2 mM vs 1 mM glutamine, also with no medium change): no difference; concentration required to maintain similar levels of proliferation [1]: 2 mM |
| O=S(=O)([O-])[O-].[Mg+2] [MgSO4, Magnesium sulfate (MgSO4)] | – | enhanced growth | – |
| [Cl-].[Na+] [NaCl, Sodium chloride (NaCl)] | – | – | concentration suitable for hiPSC growth ([1]; NaCl titration in the presence of sodium bicarbonate, two-passage assay): 110 mM; osmolarity produced [2]: 295 mOsm/L |
| CC(=O)C(=O)[O-].[Na+] [Sodium pyruvate] | essential | slightly higher concentration | – |
| O.O.O.O.O.O.O.O=S(=O)([O-])[O-].[Zn+2] [Zinc, Zinc sulfate heptahydrate (ZnSO4•7H2O)] | not shown to be essential | – | improvement of hiPSC growth ([1]; two-passage assay): approximately 10% |
| O=C(O)CCCC[C@@H]1SC[C@@H]2NC(=O)N[C@@H]21 [biotin, Biotin (B7)] | – | sufficient at concentrations lower than those in DMEM/F12 | – |
| O.O.O.O.O.O=S(=O)([O-])[O-].[Cu+2] [copper, Copper(II) sulfate pentahydrate (CuSO4•5H2O)] | No advantage | – | concentration at which toxic to hiPSCs [1]: > 100 µM |
| N[C@@H](CS)C(=O)O [cysteine, L-Cysteine HCl•H2O] | can replace the cystine and cysteine combination | – | – |
| Nc1nc(=O)c2nc(CNc3ccc(C(=O)N[C@@H](CCC(=O)O)C(=O)O)cc3)cnc2[nH]1 [folic acid, Folic acid (B9)] | – | sufficient at concentrations lower than those in DMEM/F12 | – |
| NC(=O)CC[C@H](N)C(=O)O [glutamine, L-Glutamine] | – | suitable at lower concentrations | concentration required to maintain similar levels of proliferation [1]: 1 mM |
| NCC(=O)O [glycine, Glycine] | – | – | requirement of the component for hiPSC growth ([1]; no medium change): superfluous |
| N[C@@H](Cc1c[nH]cn1)C(=O)O [histidine, L-Histidine HCl•H2O] | – | approximately suitable | – |
| O=c1[nH]cnc2nc[nH]c12 [hypoxanthine, Hypoxanthine] | superfluous | – | – |
| O.O.O.O.O.O.O.O.O.O=[N+]([O-])[O-].O=[N+]([O-])[O-].O=[N+]([O-])[O-].[Fe+3] [iron nitrate, Iron(III) nitrate nonahydrate (Fe(NO3)3•9H2O)] | – | – | toxicity to hiPSCs ([1]; concentration titration, two-passage assay): toxic at high concentrations |

| Molecule | requirement of the component for hiPSC growth [1, 3] | suitable concentration compared with that in DMEM/F12 ([1]; titration, daily medium change) | also measured |
| --- | --- | --- | --- |
| O.O.O.O.O.O.O.O=S(=O)([O-])[O-].[Fe+2] [iron sulfate, Iron(II) sulfate heptahydrate (FeSO4•7H2O)] | – | – | toxicity to hiPSCs [1]: toxic at high concentrations |
| CC(C)C[C@H](N)C(=O)O [leucine, L-Leucine] | – | approximately suitable | – |
| CCCCC/C=C\C/C=C\CCCCCCCC(=O)O [linoleic acid, Linoleic acid] | superfluous | – | – |
| Cl.NCCCC[C@H](N)C(=O)O [lysine, L-Lysine HCl] | – | approximately suitable | – |
| CSCC[C@H](N)C(=O)O [methionine, L-Methionine] | – | approximately suitable | – |
| O[C@H]1[C@H](O)[C@@H](O)[C@H](O)[C@@H](O)[C@H]1O [myoinositol, myo-Inositol] | – | higher concentrations | – |
| NC(=O)c1cccnc1 [nicotinamide, Nicotinamide (B3)] | – | sufficient at concentrations lower than those in DMEM/F12 | – |
| Cl.Cl.NCCCCN [putrescine, Putrescine dihydrochloride] | superfluous | – | – |
| Cc1ncc(CO)c(CO)c1O [pyridoxine, Pyridoxine hydrochloride (B6)] | – | sufficient at concentrations lower than those in DMEM/F12 | – |
| Cc1cc2nc3c(=O)[nH]c(=O)nc-3n(C[C@H](O)[C@H](O)[C@H](O)CO)c2cc1C [riboflavin, Riboflavin (B2)] | – | sufficient at concentrations lower than those in DMEM/F12 | – |
| O=C([O-])O.[Na+] [sodium bicarbonate, Sodium bicarbonate (NaHCO3)] | – | – | concentration most suitable for hiPSC growth ([1]; pH normalized to 7.1): 22.5 mM |
| O.O=P([O-])(O)O.[Na+] [sodium phosphate monobasic, Sodium phosphate monobasic monohydrate (NaH2PO4•H2O)] | superfluous | – | concentration at which essential ([1]; no medium change assay): around 2 mM |
| Cc1ncc(C[n+]2csc(CCO)c2C)c(N)n1 [thiamine, Thiamine hydrochloride (B1)] | superfluous | – | requirement of the component for hiPSC growth ([1]; normoxic conditions (21% O2)): required |
| C[C@@H](O)[C@H](N)C(=O)O [threonine, L-Threonine] | – | approximately suitable | – |
| Cc1cn([C@H]2C[C@H](O)[C@@H](CO)O2)c(=O)[nH]c1=O [thymidine, Thymidine] | superfluous | – | – |
| N[C@@H](Cc1c[nH]c2ccccc12)C(=O)O [tryptophan, L-Tryptophan] | – | – | suitable concentration relative to that in DMEM/F12 ([1]; titration, two-passage assay): ~4 fold |
| N[C@@H](Cc1ccc(O)cc1)C(=O)O [tyrosine, L-Tyrosine disodium salt hydrate] | – | approximately suitable | – |
| Iron | essential | – | – |
